The record followed here is patent US11878965B2, “Inhibitors of peptidylarginine deiminases” (Gilead Sciences, Inc., priority 2020, dated 2024).

human PAD4, sequence (Q9UM07 2-663): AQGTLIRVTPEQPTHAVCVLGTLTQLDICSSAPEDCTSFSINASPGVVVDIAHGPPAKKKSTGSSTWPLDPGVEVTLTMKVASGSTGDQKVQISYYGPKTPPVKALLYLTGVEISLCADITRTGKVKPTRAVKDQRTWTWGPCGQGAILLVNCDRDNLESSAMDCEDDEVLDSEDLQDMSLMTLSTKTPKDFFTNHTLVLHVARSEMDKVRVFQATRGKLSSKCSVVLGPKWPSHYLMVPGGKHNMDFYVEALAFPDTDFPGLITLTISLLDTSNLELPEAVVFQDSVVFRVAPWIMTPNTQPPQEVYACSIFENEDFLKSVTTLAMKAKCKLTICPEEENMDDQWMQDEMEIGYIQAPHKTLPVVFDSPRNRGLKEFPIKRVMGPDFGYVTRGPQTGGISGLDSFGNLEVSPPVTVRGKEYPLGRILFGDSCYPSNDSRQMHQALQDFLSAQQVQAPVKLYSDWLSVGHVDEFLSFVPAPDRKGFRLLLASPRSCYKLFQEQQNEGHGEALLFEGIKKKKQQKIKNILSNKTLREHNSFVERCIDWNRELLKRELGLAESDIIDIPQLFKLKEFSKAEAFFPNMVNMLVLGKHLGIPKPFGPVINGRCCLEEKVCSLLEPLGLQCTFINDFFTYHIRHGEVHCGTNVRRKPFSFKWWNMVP

The first experiment deals with human PAD4 (Homo sapiens (Human), UniProt Q9UM07). As to the kind of experiment: In Vitro PAD4 BAEE Biochemical Assay. The following applies: human PAD4, BAEE substrate; 5 nM PAD4, 2 mM calcium chloride, 3 mM BAEE; geometric mean of multiple experiments. In a few lines:
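Recombinant human PAD4 (His-SUMO tag removed, E. coli-expressed), 5 nM, preincubated with compound and 2 mM CaCl2 30 min at 25 °C in MOPS pH 7.6 with DTT; 3 mM BAEE added for 2 h at 25 °C, EDTA stop. Released ammonia detected by o-phthalaldehyde/DTT fluorescence (ex 405, em 535 nm).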
Broadly, the IC50 is the concentration that inhibits the measured activity by half. Regarding `COc1cc(C(=O)N2[C@H]3CC[C@@H]2[C@H](N)C3)cc2nc(-c3cc4ccc([C@@H](C)NS(C)(=O)=O)nc4n3CC3CC3)n(C)c12` [Example 243, N-((R)-1-(2-(5-((1R,2R,4S)-2-amino-7-azabicyclo[2.2.1]heptane-7-carbonyl)-7-methoxy-1-methyl-1H-benzo[d]imidazol-2-yl)-1-(cyclopropylmethyl)-1H-pyrrolo[2,3-b]pyridin-6-yl)ethyl)methanesulfonamide], the IC50 was found to be 52.8 nM. With `COc1cc(C(=O)N2[C@H]3CC[C@@H]2[C@H](N)C3)cc2nc(-c3cc4ccc([C@@H](C)NC(=O)C5(n6cccn6)CC5)nc4n3CC3CC3)n(C)c12` [Example 173, N-((R)-1-(2-(5-((1R,2R,4S)-2-amino-7-azabicyclo[2.2.1]heptane-7-carbonyl)-7-methoxy-1-methyl-1H-benzo[d]imidazol-2-yl)-1-(cyclopropylmethyl)-1H-pyrrolo[2,3-b]pyridin-6-yl)ethyl)-1-(1H-pyrazol-1-yl)cyclopropane-1-carboxamide], the IC50 came to 96.7 nM. On the same count and under the same terms, the same measure for `COc1cc(C(=O)N2C[C@H](N)CC[C@@H]2C)cc2nc(-c3cc4ccc(-c5cccnc5-c5cncnc5)nc4n3CC3CC3)n(C)c12` [Example 266, ((2S,5R)-5-amino-2-methylpiperidin-1-yl)(2-(1-(cyclopropylmethyl)-6-(2-(pyrimidin-5-yl)pyridin-3-yl)-1H-pyrrolo[2,3-b]pyridin-2-yl)-7-methoxy-1-methyl-1H-benzo[d]imidazol-5-yl)methanone]: 346 nM; for `COc1cc(C(=O)N2C[C@H](N)CCN2C)cc2nc(-c3cc4ccc([C@@H](C)NC(=O)C(F)(F)c5ccccc5)nc4n3CC3CC3)n(C)c12` [Example 167, N-((R)-1-(2-(5-((R)-5-amino-2-methylhexahydropyridazine-1-carbonyl)-7-methoxy-1-methyl-1H-benzo[d]imidazol-2-yl)-1-(cyclopropylmethyl)-1H-pyrrolo[2,3-b]pyridin-6-yl)ethyl)-2,2-difluoro-2-phenylacetamide]: 388 nM; for `COc1cc(C(=O)N2[C@H]3CC[C@@H]2[C@H](N)C3)cc2nc(-c3cc4ccc([C@@H](C)NC(=O)c5cnn(C(F)F)c5)cc4n3CC3CC3)n(C)c12` [Example 139, N-((R)-1-(2-(5-((1R,2R,4S)-2-amino-7-azabicyclo[2.2.1]heptane-7-carbonyl)-7-methoxy-1-methyl-1H-benzo[d]imidazol-2-yl)-1-(cyclopropylmethyl)-1H-indol-6-yl)ethyl)-1-(difluoromethyl)-1H-pyrazole-4-carboxamide]: 28.9 nM. On to `COc1cc(C(=O)N2C[C@H](N)CCN2C)cc2nc(-c3cc4ccc([C@@H](C)NC(=O)c5cc(F)ccc5C)nc4n3CC3CC3)n(C)c12` [Example 197, N-((R)-1-(2-(5-((R)-5-amino-2-methylhexahydropyridazine-1-carbonyl)-7-methoxy-1-methyl-1H-benzo[d]imidazol-2-yl)-1-(cyclopropylmethyl)-1H-pyrrolo[2,3-b]pyridin-6-yl)ethyl)-5-fluoro-2-methylbenzamide], for which the IC50 turned out to be 116 nM. With `COc1cc(C(=O)N2C[C@H](N)[C@@H]3CC[C@H]2C3)cc2nc(-c3cc4ccc([C@@H](C)NC(=O)C5CC(F)(F)C5)nc4n3CC3CC3)n(C)c12` [Example 228, N-((R)-1-(2-(5-((1S,4R,5R)-4-amino-2-azabicyclo[3.2.1]octane-2-carbonyl)-7-methoxy-1-methyl-1H-benzo[d]imidazol-2-yl)-1-(cyclopropylmethyl)-1H-pyrrolo[2,3-b]pyridin-6-yl)ethyl)-3,3-difluorocyclobutane-1-carboxamide], the IC50 stood at 82.3 nM. Still for that read-out and setting: the same measure for `COc1cc(C(=O)N2[C@H]3CC[C@@H]2[C@H](N)C3)cc2nc(-c3cc4ccc(N(C(F)F)S(C)(=O)=O)nc4n3CC3CC3)n(C3CC3)c12` [Example 64, N-(2-(5-((1R,2R,4S)-2-amino-7-azabicyclo[2.2.1]heptane-7-carbonyl)-1-cyclopropyl-7-methoxy-1H-benzo[d]imidazol-2-yl)-1-(cyclopropylmethyl)-1H-pyrrolo [2,3-b]pyridin-6-yl)-N-(difluoromethyl) methanesulfonamide]: 128 nM; for `COc1cc(C(=O)N2C[C@H](N)CCN2C)cc2nc(-c3cc4ccc([C@@H](C)NC(=O)C56CC(Cl)(C5)C6)nc4n3CC3CC3)n(C)c12` [Example 186, N—((R)-1-(2-(5-((R)-5-amino-2-methylhexahydropyridazine-1-carbonyl)-7-methoxy-1-methyl-1H-benzo[d]imidazol-2-yl)-1-(cyclopropylmethyl)-1H-pyrrolo[2,3-b]pyridin-6-yl)ethyl)-3-chlorobicyclo[1.1.1]pentane-1-carboxamide]: 105 nM; for `COc1cc(C(=O)N2C[C@@H]3C[C@@H](N)[C@H]2C3)cc2nc(-c3cc4ccc(N(C(F)F)S(C)(=O)=O)nc4n3CC3CC3)n(C)c12` [Example 82, N-(2-(5-((1R,4R,6R)-6-amino-2-azabicyclo[2.2.1]heptane-2-carbonyl)-7-methoxy-1-methyl-1H-benzo[d]imidazol-2-yl)-1-(cyclopropylmethyl)-1H-pyrrolo[2,3-b]pyridin-6-yl)-N-(difluoromethyl) methanesulfonamide]: 47600 nM. As for “(S)-2-(1-(cyclopropylmethyl)-6- ((N-(difluoromethyl) methyl)sulfonamido)-1H- pyrrolo[2,3-b]pyridin-2-yl)- N-(4,4-difluoropiperidin- 3-yl)-6-fluoro- 1-methyl-1H-benzo[d] imidazole-5-carboxamide [Example 92]”, the IC50 is 617 nM. Turning to `COc1cc(C(=O)N2CCC3(CCC3N)C2)cc2nc(-c3cc4ccc(N(C(F)F)S(C)(=O)=O)nc4n3CC3CC3)n(C)c12` (stereo not shown) [Example 66, N-(2-(5-(1-amino-6-azaspiro[3.4]octane-6-carbonyl)-7-methoxy-1-methyl-1H-benzo[d]imidazol-2-yl)-1-(cyclopropylmethyl)-1H-pyrrolo[2,3-b]pyridin-6-yl)-N-(difluoromethyl) methanesulfonamide], the IC50 came to 21700 nM.

As for `COc1cc(C(=O)N2CCC[C@@H](N)C2)cc2nc(-c3cc4ccc([C@@H](C)NC(=O)C56CC(F)(C5)C6)c(F)c4n3CC3CC3)n(C)c12` [Example 143, N-((R)-1-(2-(5-((R)-3-aminopiperidine-1-carbonyl)-7-methoxy-1-methyl-1H-benzo[d]imidazol-2-yl)-1-(cyclopropylmethyl)-7-fluoro-1H-indol-6-yl)ethyl)-3-fluorobicyclo[1.1.1]pentane-1-carboxamide], the IC50 came to 502 nM. In the case of `COc1cc(C(=O)N2[C@H]3CC[C@@H]2[C@H](N)C3)cc2nc(-c3cc4ccc(N(C)S(C)(=O)=O)nc4n3CC3CC3)n(C)c12` [Example 79, N-(2-(5-((1R,2R,4S)-2-amino-7-azabicyclo[2.2.1]heptane-7-carbonyl)-7-methoxy-1-methyl-1H-benzo[d]imidazol-2-yl)-1-(cyclopropylmethyl)-1H-pyrrolo[2,3-b]pyridin-6-yl)-N-methyl-methanesulfonamide], the IC50 turned out to be 33.6 nM. Turning to `COc1cc(C(=O)N2C[C@H](N)CCN2C)cc2nc(-c3cc4ccc([C@@H](C)NC(=O)c5cc(F)cc(F)c5C)nc4n3CC3CC3)n(C)c12` [Example 213, N-((R)-1-(2-(5-((R)-5-amino-2-methylhexahydropyridazine-1-carbonyl)-7-methoxy-1-methyl-1H-benzo[d]imidazol-2-yl)-1-(cyclopropylmethyl)-1H-pyrrolo[2,3-b]pyridin-6-yl)ethyl)-3,5-difluoro-2-methylbenzamide], the IC50 turned out to be 134 nM. Consider `CS(=O)(=O)N(c1ccc2cc(-c3nc4cc(C(=O)N5[C@@H]6CC[C@@H](N)[C@H]5CC6)ccc4n3C3CC3)n(CC3CC3)c2n1)C(F)F` [Example 56, N-(2-(5-((1R,2R,5R)-2-amino-8-azabicyclo[3.2.1]octane-8-carbonyl)-1-cyclopropyl-1H-benzo[d]imidazol-2-yl)-1-(cyclopropylmethyl)-1H-pyrrolo[2,3-b]pyridin-6-yl)-N-(difluoromethyl) methanesulfonamide], for which the IC50 is 36.2 nM.

Consider `COc1cc(C(=O)N2CCC[C@@H](N)C2)cc2nc(-c3cc4ccc(N(CC(F)F)S(C)(=O)=O)nc4n3CC3CC3)n(C)c12` [Example 19, (R)-N-(2-(5-(3-aminopiperidine-1-carbonyl)-7-methoxy-1-methyl-1H-benzo[d]imidazol-2-yl)-1-(cyclopropylmethyl)-1H-pyrrolo [2,3-b]pyridin-6-yl)-N-(2,2-difluoroethyl) methanesulfonamide], for which the IC50 was found to be 181 nM.

The experiment is the same for the next values; noted with them: recombinant PAD4 5 nM, 2 mM calcium chloride, 3 mM BAEE substrate; geometric mean of multiple experiments.
`COc1cc(C(=O)N2C[C@H](N)[C@@H]3CC[C@H]2C3)cc2nc(-c3cc4ccc([C@@H](C)NC(=O)c5ccnc(C(F)F)c5)nc4n3CC3CC3)n(C)c12` [Example 296, N-((R)-1-(2-(5-((1S,4R,5R)-4-amino-2-azabicyclo[3.2.1]octane-2-carbonyl)-7-methoxy-1-methyl-1H-benzo[d]imidazol-2-yl)-1-(cyclopropylmethyl)-1H-pyrrolo[2,3-b]pyridin-6-yl)ethyl)-2-(difluoromethyl)isonicotinamide]: the IC50 stood at 74.1 nM. For `C[C@@H](NC(=O)C12CC(C#N)(C1)C2)c1ccc2cc(-c3nc4cc(C(=O)N5C[C@H](N)[C@@H]6CC[C@H]5C6)cc(F)c4n3C3CC3)n(CC3CC3)c2n1` [Example 233, N-((R)-1-(2-(5-((1S,4R,5R)-4-amino-2-azabicyclo[3.2.1]octane-2-carbonyl)-1-cyclopropyl-7-fluoro-1H-benzo[d]imidazol-2-yl)-1-(cyclopropylmethyl)-1H-pyrrolo[2,3-b]pyridin-6-yl)ethyl)-3-cyanobicyclo[1.1.1]pentane-1-carboxamide], the IC50 is 78.2 nM.
